Patent US20200345725A1, “Methods and Compositions for Treating Cancer” (Omeros Corporation, priority 2019, published 2020)
Several values for one entry are separate records, joined by “and”; a condition that tells them apart may be missing. Equal values may be shown once. Marks after values point to notes of the source that are not given here.

Assays:
Format in all cases: cell-based
GPR174 [1] = molecular target: T1, GPR174 (Homo sapiens, UniProt Q9BXC1); assay: Cellular redistribution assay (CRA) for GPR174; conditions: for EC50: multiple values = separate experiments
From the text: One method for identifying compounds capable of modulating a receptor is using a cellular redistribution assay (“CRA”). Exemplary CRA methods are found in U.S. Pat. No. 7,309,576 issued to O'Dowd et al. and in O'Dowd et al., J. Biomol. Screen. 12:175-85,2007. […] Incorporation of the NLS alters the cellular localization of the GPCR, such that the majority of the NLS-modified receptor is present in the cell interior. An NLS-modified GPCR, when interacting with a functionally active compound, is mostly localized on the cell surface. Thus, it becomes possible to identify receptor modulators without knowledge of the endogenous ligand or a surrogate ligand.
The inventors have identified a number of compounds that inhibit GPR174 using a CRA assay similar to that described in U.S. Pat. No. 7,309,576 and in O'Dowd et al., J. Biomol. Screen. 12:175-85, 2007. These compounds are described in detail below.
(§1) The inventors used a CRA similar to that described in U.S. Pat. No. 7,309,576 and O'Dowd et al., J. Biomol. Screen. 12:175-85, 2007 to identify compounds that are capable of interacting with GPR174 using a library of approximately 370,000 chemical entities. Briefly described, the CRA assay described in U.S. Pat. No. 7,309,576 involves artificially inserting a NLS into the dopamine D1 receptor (DRD1), which allows the receptor to traffic from the cell membrane to the cell interior, and that the binding of antagonists to the receptor retained the receptor at the cell surface, while removal of the ligand allowed the receptor to continue to internalize from the cell surface. Both antagonists and agonists that selectively bound the receptor retained the receptor on the plasma membrane. GPR174 constructs were generated for use in a CRA-based compound screening assay. From this screen, the inventors initially identified compounds of formula I-VI, as described herein and included in Table 1.
Target sequence in this assay (Q9BXC1 1-292 limits assumed): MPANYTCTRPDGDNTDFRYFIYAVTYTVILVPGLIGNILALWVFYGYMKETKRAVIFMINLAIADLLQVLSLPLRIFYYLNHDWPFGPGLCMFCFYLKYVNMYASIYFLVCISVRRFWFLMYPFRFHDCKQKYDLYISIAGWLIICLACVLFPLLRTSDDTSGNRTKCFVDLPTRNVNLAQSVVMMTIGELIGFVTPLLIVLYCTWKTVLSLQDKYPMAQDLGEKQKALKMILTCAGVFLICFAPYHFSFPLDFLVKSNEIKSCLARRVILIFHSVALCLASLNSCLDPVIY

ADBR2 = molecular target: T2, ADBR2 (Homo sapiens, UniProt P07550); assay: CRE-Luc reporter assay with control receptor ADBR2
T2 construct: host or cells: HEK293 or CHO cell lines (ATCC)
T2 sequence (P07550 whole entry): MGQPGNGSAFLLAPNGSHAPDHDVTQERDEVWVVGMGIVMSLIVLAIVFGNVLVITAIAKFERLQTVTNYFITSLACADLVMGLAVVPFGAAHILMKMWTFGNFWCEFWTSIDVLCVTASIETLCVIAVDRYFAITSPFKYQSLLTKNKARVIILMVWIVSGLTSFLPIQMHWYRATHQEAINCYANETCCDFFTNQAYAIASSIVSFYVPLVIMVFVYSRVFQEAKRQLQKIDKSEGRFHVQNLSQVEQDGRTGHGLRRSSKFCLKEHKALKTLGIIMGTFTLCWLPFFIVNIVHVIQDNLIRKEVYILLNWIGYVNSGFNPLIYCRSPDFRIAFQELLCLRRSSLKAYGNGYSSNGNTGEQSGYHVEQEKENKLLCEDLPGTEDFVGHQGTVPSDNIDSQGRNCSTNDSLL
Experimental: The DNA/lipofectamine 2000 mix (3000 μL) was incubated at room temperature for 30 minutes and then added into a 10 cm culture dish (Corning, NY) containing 70-90% confluent cultured cells, (HEK293 or CHO cell lines (ATCC, VA)), in 15 mL of media. […] The cells were further incubated at 37° C. for various times. The media were removed and the cells lysed.
Compounds were tested in the reporter system with increasing concentrations of GPR174-interacting compounds.
The DNA/lipofectamine 2000 mix (3000 μL) was incubated at room temperature for 30 minutes and then added into a 10 cm culture dish (Corning, NY) containing 70-90% confluent cultured cells, typically HEK293 or CHO cell lines (ATCC, VA), in 15 mL of media. […] Media (26 mL) were added to the detached cells and 120 μL of transfected cells were transferred to each well on a 96-well plate. Increasing concentration of each compound in DMSO (1.2 μl) was added to the cells after plating into the 96-well plate. The cells were further incubated at 37° C. for various times. The media were removed, and the cells lysed.
ADBR2 is a GPCR, like GPR174, that activates the Gs signaling pathway.

GPR174 [2] = molecular target: T1, GPR174; assay: CRE-Luc reporter Gs signaling assay with GPR174; parameters: host or cells: HEK293 or CHO cell lines (ATCC); conditions: for Gs pathway in the presence of GPR174 (CRE-Luc reporter): increasing concentrations of compound; for Fold decrease in Gs signaling activity / EC50 / Human GPR174 CRE Activity: nature of the compound (IA, antagonist, NM): pCRE-Luc reporter; for EC50: multiple values = separate experiments
Target sequence in this assay (Q9BXC1 whole entry): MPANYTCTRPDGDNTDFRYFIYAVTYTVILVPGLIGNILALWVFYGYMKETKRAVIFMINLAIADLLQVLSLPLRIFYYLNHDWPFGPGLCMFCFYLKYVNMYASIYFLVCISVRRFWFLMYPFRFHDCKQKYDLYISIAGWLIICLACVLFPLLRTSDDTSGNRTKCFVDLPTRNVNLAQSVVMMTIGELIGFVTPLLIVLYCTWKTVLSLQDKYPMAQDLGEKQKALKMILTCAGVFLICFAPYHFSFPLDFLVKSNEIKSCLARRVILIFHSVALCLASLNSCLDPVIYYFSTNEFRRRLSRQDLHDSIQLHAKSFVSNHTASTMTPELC

CHRM1 = assay: CRA against CHRM1
From the text: as §1
The inventors also sought to validate that the compounds identified using the CRA are modulatory compounds. To this end, the above-described CRA was used to screen a library for compounds that interact with three control non-orphan receptors, and the results of this screen were compared to the results of screening the same library for compound that were identified using a Fluorometric Imaging Plate Reader (FLIPR) assay, a conventional technique commonly used to identify compounds interacting with non-orphan GPCRs signaling through Ca^++. Three non-orphan GPCRs—Muscarinic acetylcholine receptor M1 (CHRM1), Adrenergic receptor alpha 1a (ADRA1a), and Neuropeptide S receptor (NPSR)—were screened against a 10,000-compound GPCR-focused library. Thirty interacting compound “hits” were identified using the CRA, and eighty-one hits were identified using the FLIPR for the CHRM1 receptor; 9 CRA hits and 29 FLIPR hits for the NPS receptor were identified; and 110 CRA hits and 110 FLIPR hits for ADRA1a.
In addition, the CRA can also provide the relative potencies of compounds against the target receptor.

human PBMCs = assay: Th1 cytokines in supernatants of stimulated human PBMC, GPR174 inhibitor with adenosine pathway inhibitors (Examples 15, 18-22); conditions: donor 7; for synergy with ZM on GM-CSF (greater than the sum of the increases with each inhibitor alone) / synergy with ZM on IFN-γ (greater than the sum of the increases with each inhibitor alone) / synergy with ZM on IL-2 (greater than the sum of the increases with each inhibitor alone) / synergy with ZM on TNF (greater than the sum of the increases with each inhibitor alone): high and low concentrations, ZM 0.1 μM
Experimental: Human PBMCs, obtained from a human volunteer donor, were dispensed at density of 1×10^6 cells/well in a 96-well flat-bottom plate and were stimulated in triplicate with 1 μg/mL anti-CD3 antibody (UCHT1) and 0.1 μg/mL anti-CD28 antibody (CD28.2) in the presence of:
Supernatants from these cells were collected at 24 hours post-stimulation and the levels of IFN-γ were determined by ELISA assay. Statistical analysis was carried out using one-way ANOVA with Tukey's post-hoc multiple comparison's correction.
Human PBMCs, obtained from a human volunteer donor (donor 1), were dispensed in X-vivo15 media (Lonza) supplemented with Glutamax, penicillin and streptomycin, at density of 1×10^6 cells/well in a 96-well flat-bottom plate and were stimulated with 1 μg/mL anti-CD3 antibody (UCHT1) and 0.1 μg/mL anti-CD28 antibody (CD28.2) in the presence of:
Supernatants from these cells were collected at 24 hours post-stimulation and the levels of IFN-γ, IL-2 and TNF were determined by ELISA assays.
Human PBMCs, obtained from two individual human volunteer donors (donor 2 and donor 3), were dispensed at density of 1×10^6 cells/well in a 96-well flat-bottom plate and were stimulated with 1 μg/mL anti-CD3 antibody (UCHT1) and 0.1 μg/mL anti-CD28 antibody (CD28.2) in the presence of:
Human PBMCs, obtained from twelve individual human volunteer donors were dispensed at density of 1×10^6 cells/well in a 96-well flat-bottom plate and were stimulated in triplicate with 1 μg/mL anti-CD3 antibody (UCHT1) and 0.1 μg/mL anti-CD28 antibody (CD28.2) in the presence of:
A total of 44 experiments using PBMC from 12 healthy donors were tested (9 donors for GM-CSF), with each donor tested in 1 to 8 separate experiments, depending on the donor (1 to 4 experiments each for GM-CSF). […] Cytokines were detected in supernatants with the Legendplex (Biolegend) or the MSB (MesoScale) platforms. […] One-way ANOVA with Tukey's post-hoc multiple comparisons correction was performed to identify significant differences (FC, mean fold change; ****, p<0.0001, ***, p<0.001; **, p<0.01; *, p<0.05, ns, not significant).
Human PBMC (1×10^6 cells/well in a 96-well flat-bottom plate) obtained from donor 3 and donor 6 were stimulated with 1 μg/mL anti-CD3 antibody (UCHT1) and 0.1 μg/mL anti-CD28 antibody (CD28.2) in the presence of:
Supernatants from these cells were collected at 24 hours post-stimulation and the levels of IFN-γ, IL-2, and TNF were determined with the MSD platform (MesoScale Discovery).
Human PBMC (1×10^6 cells/well in a 96-well flat-bottom plate) obtained from donor 7 were stimulated with 1 μg/mL […] (UCHT1) and 0.1 μg/mL anti-CD28 antibody (CD28.2) in the presence of:
Supernatants from these cells were collected at 24 hours post-stimulation and the levels of IFN-γ, IL-2, TNF and GM-CSF were determined with the MSD platform (MesoScale Discovery).
Supernatants from these cells were collected at 24 hours post-stimulation and the levels of IFN-γ, IL-2 and TNF were determined with the MSD platform (MesoScale Discovery).

[3] = no ZM, 0.3 μM (compound 20: 3 μM)
[4] = no ZM, 1 μM (compound 20: 10 μM)
[5] = with ZM-241385 0.1 μM, 0.3 μM (compound 20: 3 μM)
[6] = with ZM-241385 0.1 μM, 1 μM (compound 20: 10 μM), label ZM = ZM alone

| SMILES | dose-response curve against GPR174 in the CRA (FIG. 5A) (GPR174 [1]) | EC50 (GPR174 [1]) [nM] | Gs pathway in the presence of ADBR2 (CRE-Luc reporter) (ADBR2) | Gs pathway in the presence of GPR174 (CRE-Luc reporter) (GPR174 [2]) | Fold decrease in Gs signaling activity (GPR174 [2]) [fold] | EC50 (GPR174 [2]) | activity against CHRM1 in the CRA (FIG. 5B) (CHRM1) | Human GPR174 CRE Activity: nature of the compound (IA, antagonist, NM) (GPR174 [2]) | synergy with ZM on GM-CSF (greater than the sum of the increases with each inhibitor alone) (human PBMCs) | synergy with ZM on IFN-γ (greater than the sum of the increases with each inhibitor alone) (human PBMCs) | synergy with ZM on IL-2 (greater than the sum of the increases with each inhibitor alone) (human PBMCs) | synergy with ZM on TNF (greater than the sum of the increases with each inhibitor alone) (human PBMCs) | GM-CSF, ratio relative to vehicle control (human PBMCs; [3]) | IFN-γ, ratio relative to vehicle control (human PBMCs; [3]) | IL-2, ratio relative to vehicle control (human PBMCs; [3]) | TNF, ratio relative to vehicle control (human PBMCs; [3]) | GM-CSF, ratio relative to vehicle control (human PBMCs; [4]) | IFN-γ, ratio relative to vehicle control (human PBMCs; [4]) | IL-2, ratio relative to vehicle control (human PBMCs; [4]) | TNF, ratio relative to vehicle control (human PBMCs; [4]) | other results |
| --- | --- | --- | --- | --- | --- | --- | --- | --- | --- | --- | --- | --- | --- | --- | --- | --- | --- | --- | --- | --- | --- |
| CCOC(=O)N1CCN(c2cc(N3CCC(C)CC3)c(F)cc2[N+](=O)[O-])CC1 [compound 1] | show a dose-response curve | 2100 | did not inhibit | inhibited | 2.9 | 400 nM and 800 nM | do not show any activity | – | – | – | – | – | – | – | – | – | – | – | – | – | – |
| CC(=O)c1ccc(N2CCN(C(=O)c3ccc(F)cc3)CC2)c(F)c1 [compound 3] | show a dose-response curve | – | – | – | – | – | do not show any activity | Antagonist or allostetic modulator | – | – | – | – | – | – | – | – | – | – | – | – | – |
| O=[N+]([O-])c1cc(F)c(N2CCCCC2)cc1N1CCN(S(=O)(=O)c2ccccc2)CC1 [compound 11] | – | > 1100 | did not inhibit | inhibited | 3.1 | 500 nM and 1300 nM and 600 nM | – | – | synergized with ZM | synergized with ZM | synergized with ZM | synergized with ZM | 2.9* | 1.9* | 1.4* | 1.7* | 2.4* | 1.8* | 1.3 | 1.7* | GM-CSF, ratio relative to vehicle control (human PBMCs; [5]): 4.4*; IFN-γ, ratio relative to vehicle control (human PBMCs; [5]): 2.9*; IL-2, ratio relative to vehicle control (human PBMCs; [5]): 1.8*; TNF, ratio relative to vehicle control (human PBMCs; [5]): 2.6*; GM-CSF, ratio relative to vehicle control (human PBMCs; [6]): 4.9*; IFN-γ, ratio relative to vehicle control (human PBMCs; [6]): 3.4*; IL-2, ratio relative to vehicle control (human PBMCs; [6]): 1.9*; TNF, ratio relative to vehicle control (human PBMCs; [6]): 3.0* |
| Cc1ccccc1Nc1nnc(-c2ccc(C)c(S(N)(=O)=O)c2)c2ccccc12 [compound 20] | show a dose-response curve | – | – | – | – | – | do not show any activity | Antagonist or allosteric modulator | synergized with ZM | synergized with ZM | synergized with ZM | synergized with ZM | 2.7* | 1.2 | 1.3 | 1.4* | 2.3* | 1.5* | 1.4* | 1.5* | GM-CSF, ratio relative to vehicle control (human PBMCs; [5]): 4.6*; IFN-γ, ratio relative to vehicle control (human PBMCs; [5]): 1.8*; IL-2, ratio relative to vehicle control (human PBMCs; [5]): 1.6*; TNF, ratio relative to vehicle control (human PBMCs; [5]): 1.9*; GM-CSF, ratio relative to vehicle control (human PBMCs; [6]): 4.4*; IFN-γ, ratio relative to vehicle control (human PBMCs; [6]): 2.1*; IL-2, ratio relative to vehicle control (human PBMCs; [6]): 2.1*; TNF, ratio relative to vehicle control (human PBMCs; [6]): 2.4* |
